According to PMC11446596 (Critical Care Explorations, 2024):
Where two headings read alike, the source gives them in different places.

Columns and labels:
[1] = median / average of model-predicted half-life; PICU children
[2] = critically ill children; cited from earlier work
[3] = design: species or system human; settings: for Trough Vancomycin Concentration achieving AUC24/MIC = 400: regression equation
[4] = AUC24 regression equation, 365 troughs, 238 subjects

Structure (SMILES): CN[C@H](CC(C)C)C(=O)N[C@H]1C(=O)N[C@@H](CC(N)=O)C(=O)N[C@H]2C(=O)N[C@H]3C(=O)N[C@H](C(=O)N[C@H](C(=O)O)c4cc(O)cc(O)c4-c4cc3ccc4O)[C@H](O)c3ccc(c(Cl)c3)Oc3cc2cc(c3O[C@@H]2O[C@H](CO)[C@@H](O)[C@H](O)[C@H]2O[C@H]2C[C@](C)(N)[C@H](O)[C@H](C)O2)Oc2ccc(cc2Cl)[C@H]1O [vancomycin]
- half-life (model-predicted, terminal) [1]: 6 h
- Vc reported by Downes et al [2]: 2.59 L
- Vp reported by Downes et al [2]: 5.74 L
- Trough Vancomycin Concentration achieving AUC24/MIC = 400 ([3]; 15 mg/kg q6h, body weight 10 kg, MIC = 0.5 μg/mL): 1.8 µg/mL
- Trough Vancomycin Concentration achieving AUC24/MIC = 400 ([3]; 15 mg/kg q6h, body weight 10 kg, MIC = 1 μg/mL): 7.4 µg/mL
- Trough Vancomycin Concentration achieving AUC24/MIC = 400 ([3]; 15 mg/kg q6h, body weight 10 kg, MIC = 2 μg/mL): 29.9 µg/mL
- Trough Vancomycin Concentration achieving AUC24/MIC = 400 ([3]; 15 mg/kg q6h, body weight 20 kg, MIC = 0.5 μg/mL): 1.7 µg/mL
- Trough Vancomycin Concentration achieving AUC24/MIC = 400 ([3]; 15 mg/kg q6h, body weight 20 kg, MIC = 1 μg/mL): 6.9 µg/mL
- Trough Vancomycin Concentration achieving AUC24/MIC = 400 ([3]; 15 mg/kg q6h, body weight 20 kg, MIC = 2 μg/mL): 28.0 µg/mL
- Trough Vancomycin Concentration achieving AUC24/MIC = 400 ([3]; 15 mg/kg q6h, body weight 40 kg, MIC = 0.5 μg/mL): 1.5 µg/mL
- Trough Vancomycin Concentration achieving AUC24/MIC = 400 ([3]; 15 mg/kg q6h, body weight 40 kg, MIC = 1 μg/mL): 6.1 µg/mL
- Trough Vancomycin Concentration achieving AUC24/MIC = 400 ([3]; 15 mg/kg q6h, body weight 40 kg, MIC = 2 μg/mL): 24.6 µg/mL
- Trough Vancomycin Concentration achieving AUC24/MIC = 400 ([3]; 15 mg/kg q8h, body weight 10 kg, MIC = 0.5 μg/mL): 2.5 µg/mL
- Trough Vancomycin Concentration achieving AUC24/MIC = 400 ([3]; 15 mg/kg q8h, body weight 10 kg, MIC = 1 μg/mL): 10.0 µg/mL
- Trough Vancomycin Concentration achieving AUC24/MIC = 400 ([3]; 15 mg/kg q8h, body weight 10 kg, MIC = 2 μg/mL): 40.7 µg/mL
- Trough Vancomycin Concentration achieving AUC24/MIC = 400 ([3]; 15 mg/kg q8h, body weight 20 kg, MIC = 0.5 μg/mL): 2.3 µg/mL
- Trough Vancomycin Concentration achieving AUC24/MIC = 400 ([3]; 15 mg/kg q8h, body weight 20 kg, MIC = 1 μg/mL): 9.3 µg/mL
- Trough Vancomycin Concentration achieving AUC24/MIC = 400 ([3]; 15 mg/kg q8h, body weight 20 kg, MIC = 2 μg/mL): 37.6 µg/mL
- Trough Vancomycin Concentration achieving AUC24/MIC = 400 ([3]; 15 mg/kg q8h, body weight 40 kg, MIC = 0.5 μg/mL): 2.0 µg/mL
- Trough Vancomycin Concentration achieving AUC24/MIC = 400 ([3]; 15 mg/kg q8h, body weight 40 kg, MIC = 1 μg/mL): 8.0 µg/mL
- Trough Vancomycin Concentration achieving AUC24/MIC = 400 ([3]; 15 mg/kg q8h, body weight 40 kg, MIC = 2 μg/mL): 32.4 µg/mL
- Trough Vancomycin Concentration achieving AUC24/MIC = 400 ([3]; 20 mg/kg q6h, body weight 10 kg, MIC = 0.5 μg/mL): 1.8 µg/mL
- Trough Vancomycin Concentration achieving AUC24/MIC = 400 ([3]; 20 mg/kg q6h, body weight 10 kg, MIC = 1 μg/mL): 7.2 µg/mL
- Trough Vancomycin Concentration achieving AUC24/MIC = 400 ([3]; 20 mg/kg q6h, body weight 10 kg, MIC = 2 μg/mL): 29.3 µg/mL
- Trough Vancomycin Concentration achieving AUC24/MIC = 400 ([3]; 20 mg/kg q6h, body weight 20 kg, MIC = 0.5 μg/mL): 1.6 µg/mL
- Trough Vancomycin Concentration achieving AUC24/MIC = 400 ([3]; 20 mg/kg q6h, body weight 20 kg, MIC = 1 μg/mL): 6.6 µg/mL
- Trough Vancomycin Concentration achieving AUC24/MIC = 400 ([3]; 20 mg/kg q6h, body weight 20 kg, MIC = 2 μg/mL): 26.8 µg/mL
- Trough Vancomycin Concentration achieving AUC24/MIC = 400 ([3]; 20 mg/kg q6h, body weight 40 kg, MIC = 0.5 μg/mL): 1.4 µg/mL
- Trough Vancomycin Concentration achieving AUC24/MIC = 400 ([3]; 20 mg/kg q6h, body weight 40 kg, MIC = 1 μg/mL): 5.6 µg/mL
- Trough Vancomycin Concentration achieving AUC24/MIC = 400 ([3]; 20 mg/kg q6h, body weight 40 kg, MIC = 2 μg/mL): 22.6 µg/mL
- Trough Vancomycin Concentration achieving AUC24/MIC = 400 ([3]; 30 mg/kg q8h, body weight 10 kg, MIC = 0.5 μg/mL): 2.3 µg/mL
- Trough Vancomycin Concentration achieving AUC24/MIC = 400 ([3]; 30 mg/kg q8h, body weight 10 kg, MIC = 1 μg/mL): 9.3 µg/mL
- Trough Vancomycin Concentration achieving AUC24/MIC = 400 ([3]; 30 mg/kg q8h, body weight 10 kg, MIC = 2 μg/mL): 37.6 µg/mL
- Trough Vancomycin Concentration achieving AUC24/MIC = 400 ([3]; 30 mg/kg q8h, body weight 20 kg, MIC = 0.5 μg/mL): 2.0 µg/mL
- Trough Vancomycin Concentration achieving AUC24/MIC = 400 ([3]; 30 mg/kg q8h, body weight 20 kg, MIC = 1 μg/mL): 8.0 µg/mL
- Trough Vancomycin Concentration achieving AUC24/MIC = 400 ([3]; 30 mg/kg q8h, body weight 20 kg, MIC = 2 μg/mL): 32.4 µg/mL
- Trough Vancomycin Concentration achieving AUC24/MIC = 400 ([3]; 30 mg/kg q8h, body weight 40 kg, MIC = 0.5 μg/mL): 1.5 µg/mL
- Trough Vancomycin Concentration achieving AUC24/MIC = 400 ([3]; 30 mg/kg q8h, body weight 40 kg, MIC = 1 μg/mL): 6.1 µg/mL
- Trough Vancomycin Concentration achieving AUC24/MIC = 400 ([3]; 30 mg/kg q8h, body weight 40 kg, MIC = 2 μg/mL): 24.7 µg/mL
- Exponent of trough concentration ([3]; AUC24 regression equation, (Ctr/7)^x, 365 troughs, 238 subjects): 0.495
- Additive shift for dose frequency < 8 hours [3, 4]: 54.9
- Slope of (DOSE [mg] - 500) [3, 4]: 0.0894
